Assay results taken from patent US9751886B2, “4-amino-6-phenyl-6,7-dihydro[1,2,3]triazolo[1,5-A]pyrazine derivatives as inhibitors of beta-secretase (BACE)” (Janssen Pharmaceutica NV, priority 2013, dated 2017).

What was measured:
[1] = system: Abeta 1-42 secreted by human neuroblastoma SKNBE2 cells expressing wild type hAPP695; assay: BACE1 cellular αLisa assay in SKNBE2 cells, Abeta 1-42; type: cell-based; conditions: 18 hours incubation; for IC50: Homo sapiens, read-out: Cellular αLisa assay in SKNBE2 cells Abeta 42 pIC50 (converted)
Procedure: (§1) In two αLisa assays the levels of Abeta total and Abeta 1-42 produced and secreted into the medium of human neuroblastoma SKNBE2 cells are quantified. The assay is based on the human neuroblastoma SKNBE2 expressing the wild type Amyloid Precursor Protein (hAPP695). The compounds are diluted and added to these cells, incubated for 18 hours and then measurements of Abeta 1-42 and Abeta total are taken. Abeta total and Abeta 1-42 are measured by sandwich αLisa. αLisa is a sandwich assay using biotinylated antibody AbN/25 attached to streptavidin coated beads and antibody Ab4G8 or cAb42/26 conjugated acceptor beads for the detection of Abeta total and Abeta 1-42 respectively. In the presence of Abeta total or Abeta 1-42, the beads come into close proximity. The excitation of the donor beads provokes the release of singlet oxygen molecules that trigger a cascade of energy transfer in the acceptor beads, resulting in light emission.

[2] = system: brain levels of soluble Aβ42, Aβ40; assay: In vivo Aβ lowering in non-transgenic rodents (MSD electrochemiluminescence); parameters: species or system mouse; conditions: dose 10, p.o., untreated control = 100
Description: To determine whether acute administration of an Aβ lowering agent would reduce Aβ levels in vivo, non-transgenic rodents, e.g. mice or rats were used. Animals treated with the Aβ lowering agent were examined and compared to those untreated or treated with vehicle and brain levels of soluble Aβ42, Aβ40, Aβ38, and Aβ37 were quantitated by Meso Scale Discovery's (MSD) electrochemiluminescence detection technology. Treatment periods varied from hours (h) to days and were adjusted based on the results of the Aβ lowering once a time course of onset of effect could be established.
A typical protocol for measuring Aβ lowering in vivo is shown but it is only one of many variations that could be used to optimize the levels of detectable A. For example, Aβ lowering compounds were formulated in 20% of Captisol® (a sulfo-butyl ether of β-cyclodextrin) in water or 20% hydroxypropyl β cyclodextrin. The Aβ lowering agents were administered as a single oral dose or by any acceptable route of administration to overnight fasted animals. […]
Blood was collected by decapitation and exsanguinations in EDTA-treated collection tubes. Blood was centrifuged at 1900 g for 10 minutes (min) at 4° C. and the plasma recovered and flash frozen for later analysis. The brain was removed from the cranium and hindbrain. The cerebellum was removed and the left and right hemisphere were separated. The left hemisphere was stored at −18° C. for quantitative analysis of test compound levels. The right hemisphere was rinsed with phosphate-buffered saline (PBS) buffer and immediately frozen on dry ice and stored at −80° C. until homogenization for biochemical assays.
Mouse brains from non-transgenic animals were resuspended in 8 volumes of 0.4% DEA (diethylamine)/50 mM NaCl containing protease inhibitors (Roche-11873580001 or 04693159001) per gram of tissue, e.g. for 0.158 g brain, add 1.264 ml of 0.4% DEA. All samples were homogenized in the FastPrep-24 system (MP Biomedicals) using lysing matrix D (MPBio #6913-100) at 6 m/s for 20 seconds. Homogenates were centrifuged at 20800×g for 5 min and supernatants collected. Supernatants were centrifuged at 221.300×g for 50 min. The resulting high speed supernatants were then transferred to fresh eppendorf tubes. Nine parts of supernatant were neutralized with 1 part 0.5 M Tris-HCl pH 6.8 and used to quantify Aβ.
To quantify the amount of Aβ42, Aβ40, Aβ38, and Aβ37 in the soluble fraction of the brain homogenates, simultaneous specific detection of Aβ42, Aβ40, Aβ38, and Aβ37 was performed using MSD's electro-chemiluminescence multiplex detection technology. In this assay purified monoclonal antibodies specific for Abeta37 (JRD/Aβ37/3), Abeta38 (J&JPRD/Aβ38/5), Abeta40 (JRF/cAβ40/28), and Abeta42 (JRF/cAβ(342/26) were coated on MSD 4-plex plates. Briefly, the standards (a dilution of synthetic Aβ42, Aβ40, Aβ38, and Aβ37) were prepared in 1.5 ml Eppendorf tube in Ultraculture, with final concentrations ranging from 10000 to 0.3 pg/m. The samples and standards were co-incubated with Sulfo-tag labelled JRF/rAβ/2 antibody to the N-terminus of Aβ as detector antibody. 50 μl of conjugate/sample or conjugate/standards mixtures were then added to the antibody-coated plate. The plate was allowed to incubate overnight at 4° C. in order to allow formation of the antibody-amyloid complex. Following this incubation and subsequent wash steps the assay was finished by adding read buffer according to the manufacturer's instructions (Meso Scale Discovery, Gaitherburg, Md.).
The SULFO-TAG emits light upon electrochemical stimulation initiated at the electrode. MSD Sector instrument SI6000 was used for signal read-out.
The results are shown in Table 8 (value for untreated animals as control (Ctrl) was set at 100): […]

[3] = system: Abeta total secreted by human neuroblastoma SKNBE2 cells expressing wild type hAPP695; assay: BACE1 cellular αLisa assay in SKNBE2 cells, Abeta total; type: cell-based; conditions: 18 hours incubation; for IC50: Homo sapiens, read-out: Cellular αLisa assay in SKNBE2 cells Abetatotal pIC50 (converted)
Procedure: as §1

[4] = molecular target: T1, recombinant BACE1 protein (Homo sapiens (Human), UniProt P56817); assay: BACE1 Biochemical FRET based assay - Method 2; conditions: 0.04 μg/ml BACE1, 20 μM substrate, 450 min, pH 5.0
T1 sequence (P56817 46-501): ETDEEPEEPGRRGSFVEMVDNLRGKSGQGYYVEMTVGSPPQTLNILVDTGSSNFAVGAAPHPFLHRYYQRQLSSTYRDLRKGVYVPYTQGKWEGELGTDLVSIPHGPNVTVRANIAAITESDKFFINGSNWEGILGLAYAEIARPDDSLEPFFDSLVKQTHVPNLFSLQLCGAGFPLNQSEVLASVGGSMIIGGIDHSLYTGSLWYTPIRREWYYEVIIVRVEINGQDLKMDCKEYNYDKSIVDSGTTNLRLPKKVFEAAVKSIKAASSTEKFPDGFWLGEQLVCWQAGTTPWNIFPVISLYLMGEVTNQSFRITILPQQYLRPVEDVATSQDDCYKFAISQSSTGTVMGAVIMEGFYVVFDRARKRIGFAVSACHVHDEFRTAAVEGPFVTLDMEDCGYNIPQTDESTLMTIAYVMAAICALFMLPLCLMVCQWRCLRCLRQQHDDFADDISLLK
Description: (§2) This assay is a Fluorescence Resonance Energy Transfer Assay (FRET) based assay. The substrate for this assay is an APP derived 13 amino acids peptide that contains the ‘Swedish’ Lys-Met/Asn-Leu mutation of the amyloid precursor protein (APP) beta-secretase cleavage site. This substrate also contains two fluorophores: (7-methoxycoumarin-4-yl) acetic acid (Mca) is a fluorescent donor with excitation wavelength at 320 nm and emission at 405 nm and 2,4-Dinitrophenyl (Dnp) is a proprietary quencher acceptor. […] Upon cleavage by BACE1, the fluorophore Mca is separated from the quenching group Dnp, restoring the full fluorescence yield of the donor. The increase in fluorescence is linearly related to the rate of proteolysis.
Briefly in a 384-well format recombinant BACE1 protein in a final concentration of 0.04 μg/ml is incubated for 450 minutes at room temperature with 20 μM substrate in incubation buffer (50 mM Citrate buffer pH 5.0, 0.05% PEG) in the presence of compound or DMSO. Next the amount of proteolysis is directly measured by fluorescence measurement (excitation at 320 nm and emission at 405 nm) at different incubation times (0, 30, 60, 90, 120 and 450 min). For every experiment a time curve (every 30 min between 0 min and 120 min) is used to determine the time where we find the lowest basal signal of the high control. The signal at this time (Tx) is used to subtract from the signal at 450 min. Results are expressed in RFU, as difference between T450 and Tx.

[5] = molecular target: recombinant BACE2 protein (Homo sapiens (Human), UniProt Q9Y5Z0); assay: BACE2 Biochemical FRET based assay; conditions: 0.4 μg/ml BACE2, 10 μM substrate, 450 min, pH 5.0
recombinant BACE2 protein, sequence (Q9Y5Z0 63-518): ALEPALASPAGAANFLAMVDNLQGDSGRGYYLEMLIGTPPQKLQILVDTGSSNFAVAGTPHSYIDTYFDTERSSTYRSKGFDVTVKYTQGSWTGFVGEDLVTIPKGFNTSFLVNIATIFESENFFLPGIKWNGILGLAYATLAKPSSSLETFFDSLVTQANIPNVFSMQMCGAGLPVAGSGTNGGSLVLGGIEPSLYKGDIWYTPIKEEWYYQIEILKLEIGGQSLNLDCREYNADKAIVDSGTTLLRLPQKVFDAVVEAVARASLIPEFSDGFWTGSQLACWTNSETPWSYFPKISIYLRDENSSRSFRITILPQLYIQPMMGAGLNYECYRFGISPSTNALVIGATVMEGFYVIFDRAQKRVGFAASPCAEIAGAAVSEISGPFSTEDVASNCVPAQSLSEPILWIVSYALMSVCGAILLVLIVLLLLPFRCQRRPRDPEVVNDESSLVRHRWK
Description: as §2, with “assay” for “assay is an APP derived 13 amino acids peptide that”, “the beta-secretase,” for “BACE1,”
Briefly in a 384-well format recombinant BACE2 protein in a final concentration of 0.4 μg/ml is incubated for 450 minutes at room temperature with 10 μM substrate in incubation buffer (50 mM Citrate buffer pH 5.0, 0.05% PEG, no DMSO) in the absence or presence of compound. Next the amount of proteolysis is directly measured by fluorescence measurement at T=0 and T=450 (excitation at 320 nm and emission at 405 nm). Results are expressed in RFU (Relative Fluorescence Units), as difference between T450 and TO.

[6] = molecular target: T1, recombinant BACE1 protein; assay: BACE1 Biochemical FRET based assay - Method 1; conditions: 1 μg/ml BACE1, 10 μM substrate, 120 min, pH 5.0
Description: as §2
Briefly in a 384-well format recombinant BACE1 protein in a final concentration of 1 μg/ml is incubated for 120 minutes at room temperature with […] substrate in incubation buffer (40 mM Citrate buffer pH 5.0, 0.04% PEG, 4% DMSO) in the absence or presence of compound. Next the amount of proteolysis is directly measured by fluorescence measurement at T=0 and T=120 (excitation at 320 nm and emission at 405 nm). Results are expressed in RFU (Relative Fluorescence Units), as difference between T120 and TO.

SMILES | IC50 [1] [nM] | Aβ40 (% vs Ctrl)_Mean ([2]; 2 h after administration) [% vs Ctrl] | Aβ42 (% vs Ctrl)_Mean ([2]; 2 h after administration) [% vs Ctrl] | Aβ40 (% vs Ctrl)_Mean ([2]; 4 h after administration) [% vs Ctrl] | Aβ42 (% vs Ctrl)_Mean ([2]; 4 h after administration) [% vs Ctrl] | IC50 [3] [nM] | BACE1 Biochemical FRET based assay - Method 2 pIC50 [4] | BACE2 Biochemical FRET based assay pIC50 [5] | Cellular αLisa assay in SKNBE2 cells Abeta 42 pIC50 [1] | Cellular αLisa assay in SKNBE2 cells Abetatotal pIC50 [3] | BACE1 Biochemical FRET based assay - Method 1 pIC50 [6] | IC50 ([6]; read-out: BACE1 Biochemical FRET based assay - Method 1 pIC50 (converted)) [nM]
NC1=N[C@](CF)(c2cc(NC(=O)c3ccc(F)cn3)ccc2F)Cn2nncc21 [Compound 10, N-{3-[(6R)-4-amino-6-(fluoromethyl)-6,7-dihydro[1,2,3]triazolo[1,5-a]pyrazin-6-yl]-4-fluorophenyl}-5-fluoropyridine-2-carboxamide] | 24.5 | 95 | 79 | 116 | 87 | 24.5 | 8.39 | 8.49 |  |  |  | 
C[C@@]1(c2cc(NC(=O)c3ccc(Cl)cn3)ccc2F)Cn2nncc2C(N)=N1 [Compound 4] |  |  |  |  |  |  | 8.75 | 8.56 | 8.77 | 8.88 | 8.76 | 
COc1cnc(C(=O)Nc2ccc(F)c([C@]3(C)Cn4nncc4C(N)=N3)c2)cn1 [Compound 3, N-{3-[(6R)-4-Amino-6-methyl-6,7-dihydro[1,2,3]triazolo[1,5-a]pyrazin-6-yl]-4-fluorophenyl}-5-methoxypyrazine-2-carboxamide] | 1.82 |  |  |  |  | 1.62 | 8.69 | 7.81 |  |  |  | 2.04
